Source: publication PMC5291098, “Molecular mutagenesis of ppGpp: turning a RelA activator into an inhibitor” (Scientific Reports, 2017)
“Also recorded” adds a separate entry of the source.

Legend:
[1] = molecular target: E. faecalis SAS RelQ (RelQEf) (Enterococcus faecalis, UniProt Q830U9); assay: Inhibition of E. faecalis SAS RelQ ppGpp synthesis; format: biochemical; details: for Effect on RelQEf activity (in words): concentrations up to 1 mM
Text: In E. coli, ppGpp is synthesized by the multi-domain RSHs RelA and SpoT, however, numerous single-domain RSHs – Small Alarmone Synthetases (SAS) – are widely distributed across bacterial taxa[3]. […] Therefore we tested the effects of DR-4250, DR-M014 and DR-5163 on RelQEf activity (Supplementary Figure 2).
Detailed description of experimental procedures can be found in Supplementary Text. Biochemical assays utilize in vitro translation[58] and stringent response[15] systems from E. coli purified components. Experiments were performed in HEPES:Polymix[58] buffer with either 5 (for enzymatically assembled initiation complexes) or 15 mM (for vacant 70 S, as well as non-enzymatically assembled programmed ribosomes) Mg^2+. Expression and purification of E. faecalis RelQ was performed as per Gaca (2015) and colleagues. GTPase and ppGpp synthesis were followed using TLC separation and radiochemical detection of ^3H-labelled nucleotides. Multiple round in vitro transcription assays were performed as per Bernardo et al.[49] with minor modifications. Inhibition efficiency (IC50) was calculated using 4-parameter logistic model (Hill equation) as per Sebaugh[60].
RelQ activity0.4 RelQ activity0.4 RelQ activity0.4
Supplementary Figure 2 | Inhibition of E. faecalis SAS RelQ by DR-4250, DR-
M014 and DR-5163 is inefficient. The reaction mixture contains 0.25 µM RelQEf,
300 µM [3H] GDP, 0.5 mg/ml BSA, 100 µM ppGpp, 1 mM ATP in Hepes:Polymix at […]

E. coli EF-G = test system: T1, E. coli EF-G; format: biochemical; details: up to 1 mM
T1 construct: made in house
Experimental: Thin layer chromatography (TLC) analysis of nucleotide mixtures
Both EF-G GTPase reaction and ppGpp synthesis by RelA were followed by TLC analysis followed by scintillation counting according to Mechold and colleagues, with modifications1. Time points from the reaction mixtures (5 μl, see below for details) were quenched by addition 4 μl 70% formic acid supplemented with a cold nucleotide standard used for UV-shadowing (10 mM GDP and 10 mM GTP) and spotted on PEI-TLC plates (Macherey-Nagel). TLC was run in buffer, plates dried, cut into sections guided by UV-shadowing and 3H radioactivity was quantified by scintillation counting in Optisafe-3 (Fisher) scintillation cocktail on Perkin Elmer Tricarb 2810TR counter. Conversion of substrate to product was quantified as described in Shyp et al. (2012)2. […]
GTPase assays with E. coli EF-G
The reaction mixture contained 0.5 μM 70S, 0.1 μM EF-G, in HEPES:Polymix (25 mM Hepes 7.5/ 1 mM DTT / 5 mM Mg2+) pre-incubated for 2 minutes at 37°C prior to addition of 300 μM [3H]GTP substrate (Hartman), after which time points (5 μl) taken, quenched with formic acid and analyzed by TLC (see above). […]

[2] = test system: T2, E. coli σ70-RNAP holoenzyme; assay: Multiple round in vitro transcription by σ70-RNAP (rrnB P1 and rna1 promoters); format: biochemical, Escherichia coli; details: for Effect of DksA addition on RNAP inhibition, rrnB P1 promoter (in words): 2 μM DksA; for Inhibition of RNAP, rrnB P1 promoter (in words): absence of DksA, irrespective of presence or absence of 100 μM ppGpp
T2 construct: purchased Epicentre
Experimental: Next, we tested their effects on RNAP. […] We used multiple round in vitro transcription driven from the rrnB P1, a well-characterized ppGpp/DksA inhibited promoter, as described earlier[49]. The assays were performed in the presence and absence of 2 μM DksA and/or 100 μM ppGpp (Fig. 5a).
Effect of inhibitors on rrnB P1 (−66 to +50) promoter transcription by RNAP. Graphs depicting inhibitor (0, 0.025, 0.05, 0.15, 0.4 and 0.6 mM) titrations performed at 30 °C in T-buffer with 0.5 nM template (σ^70-rrnB P1 promoter (pRLG6214)) and 5 nM σ^70-RNAP, in presence or absence of 100 μM ppGpp and/or 2 μM DksA. Error bars represent standard deviations of linear regression estimates, each experiment was performed at least three times.
The assays were performed as per Bernardo et al. (2006)4 with minor modifications. Reactions were carried out in T-buffer (50 mM Tris-HCl pH 7.5, 100 mM NaCl, 10 mM MgCl2, 1 mM dithiothreitol, 0.1 mM EDTA and 0.275 mg of BSA per ml) at 30°C. Inhibitors were titrated to final concentrations of 0, 0.025, 0.05, 0.15, 0.4 and 0.6 mM. E. coli s 70-RNAP holoenzyme (Epicentre, final concentration 5 nM) and template plasmid DNA containing s70-rrnB P1 promoter, (pRLG6214, final concentration 0.5 nM) was used for all experiments. Before initiation of transcription, E. coli s70-RNAP holoenzyme and T buffer were incubated at 30°C for 5 min. Above mix was added to predispensed mixture of inhibitor and the template plasmid DNA containing s70-rrnB P1 promoter (pRLG6214), incubated for further 20 min to initiate open complex formation. 2.5 µl of a mixture of ATP (ﬁnal concentration 0.5 mM), GTP and CTP (ﬁnal concentration 0.2 mM each), UTP (ﬁnal concentration 0.08 mM) and [a-32P]-UTP (5 µCi at > 3000 Ci/mmol, PerkinElmer) was added to initiate transcription by RNAP. After 7 min, 1 µl heparin (0.125 mg/ml ﬁnal concentration) was added to the reaction mixture to prevent re-initiation and further incubated for 5 min to allow completion of initiated transcripts. Transcription was terminated by addition of formamide loading buffer and samples were electrophoresed on a 7M urea-5% polyacrylamide gel and quantified by phosphorimaging.

ΔywaCΔyjbM B. subtilis = assay: Growth of ΔywaCΔyjbM B. subtilis in valine drop-out S7 medium (functional test for Rel inhibition); format: cell-based, Bacillus subtilis; details: up to 1 mM (0 to 1000 µM)
Text: Finally, we tested the three of our most promising inhibitors (DR-4250, DR-M014 and DR-5163) for RSH inhibition in bacterial culture. For this we used the Gram-positive bacterium B. subtilis due to its better uptake of compounds as compared to Gram-negative species such as E. coli[50]. The functional test for RSH inhibition relied on the auxotrophy of (p)ppGpp-deficient (ppGpp^0) B. subtilis for methionine and branched-chain amino acids valine, leucine and isoleucine. The B. subtilis RSH repertoire consists of one multi-domain ribosome-associated enzyme Rel and two SAS, YwaC and YjbM[3][52]. Because the SAS RelQEf is refractory to inhibition by our test compounds (Supplementary Figure 2), we used a B. subtilis strain lacking SASs (ΔywaCΔyjbM), in which the sole source of (p)ppGpp is Rel[53]. Defined S7 medium[54] lacking valine supports the growth of ΔywaCΔyjbM B. subtilis, but not the ppGpp^0 stain (Supplementary Figure 5). […] This is indicative of the test compounds failing to inhibit Rel and thereby rendering the strain phenotypically ppGpp^0 (Supplementary Figure 5). A lack of cellular uptake is a likely explanation. […]
Growth assays with Bacillus subtilis BSB1 wild type strain
SAS deletion and ppGpp0 strain of B. subtilis5 were grown in S7 liquid medium6 except for amino acid requirements, which were met as described elsewhere 7. On 96-well plate, 90 µl of B subtilis starter culture was mixed with 10 µL of compound dilution (in 5 mM Tris pH 7.2) so that final OD600 was 0.025 (l = 1 cm).
Following incubation was without shaking at 37°C and growth was monitored with Tecan Infinite M200 at OD600 (raw OD600 values are reported). B. subtilis starter culture was prepared as follows. Late exponential phase cells in S7, with full set of amino acids, were diluted ≈10-fold in S7 lacking either valine or lysine so that, after addition of 8% DMSO, OD600 was 0.25. Next, cell suspensions were aliquoted, frozen in liquid nitrogen, and stored at -80°C. Just before the experiment, cells were thawed on ice and appropriate amount of media was […]
DywaC DyjbM BSB1 B. subtilis ppGpp0. BSB1 B. subtilis wild type strain as grown on S7 synthetic media8 drop-out media lacking valine which abolishes the growth of ppGpp0 (Drel DywaC DyjbM) strain due to valine auxotrophy (dashed line). […]
inhibit the Rel and render the strain ppGpp0.

Sequence of E. faecalis SAS RelQ (RelQEf) (Q830U9 entry or part of it): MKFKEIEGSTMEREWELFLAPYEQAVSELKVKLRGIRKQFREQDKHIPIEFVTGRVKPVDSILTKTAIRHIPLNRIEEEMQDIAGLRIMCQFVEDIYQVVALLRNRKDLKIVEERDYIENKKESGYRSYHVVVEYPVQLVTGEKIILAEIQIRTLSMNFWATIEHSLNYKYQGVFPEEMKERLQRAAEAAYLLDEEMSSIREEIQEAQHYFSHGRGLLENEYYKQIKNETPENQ

Structure (SMILES): Nc1nc2c(ncn2C2OC(COP(=O)(O)OCP(=O)(O)O)C(OP(=O)(O)OCP(=O)(O)O)C2O)c(=O)[nH]1 (stereo not shown) [DR-4250, Guanosine 3’,5’-di(phosphonomethoxyphosphate)]
- IC50 ([1]; 0.25 µM RelQEf, 300 µM [3H]GDP, 100 µM ppGpp, 1 mM ATP, 37°C): 235 ± 19 µM
- Effect on RelQEf activity (in words) [1]: inefficient
- Inhibitory effect on EF-G GTPase activity (in words) (E. coli EF-G): no inhibitory effect
- Effect of DksA addition on RNAP inhibition, rrnB P1 promoter (in words) [2]: pronounced protective effect
- Inhibition of RNAP, rrnB P1 promoter (in words) [2]: more potent inhibitors of RNAP then of RelA
- Inhibition of RNAP, ppGpp-insensitive promoter rna1 (in words) ([2]; presence or absence of 100 μM ppGpp and/or 2 μM DksA (Supplementary Figure 4)): the same behavior
- Effect on growth of ΔywaCΔyjbM B. subtilis (in words) (ΔywaCΔyjbM B. subtilis): did not affect bacterial growth; also recorded: does not affect the growth

Structure (SMILES): Nc1nc2c(ncn2C2CCN(C(=O)P(=O)(O)O)CC2)c(=O)[nH]1 [DR-M014]
- Effect on RelQEf activity (in words) [1]: inefficient; also recorded: almost inactive
- Inhibitory effect on EF-G GTPase activity (in words) (E. coli EF-G): no inhibitory effect
- Effect of DksA addition on RNAP inhibition, rrnB P1 promoter (in words) [2]: pronounced protective effect
- Inhibition of RNAP, rrnB P1 promoter (in words) [2]: more potent inhibitors of RNAP then of RelA
- Effect on growth of ΔywaCΔyjbM B. subtilis (in words) (ΔywaCΔyjbM B. subtilis): does not affect the growth
- Effect on growth of ΔywaCΔyjbM B. subtilis (in words) (ΔywaCΔyjbM B. subtilis; listed as DR-M013): did not affect bacterial growth
